Where two headings read alike, the source gives them in different places.
Molecular target: T1, FmlHLD (Escherichia coli, UniProt P77588)
T1 construct: 6xHis (C); made in house; host or cells: E. coli C600, periplasm, pTRC99a
Assay: biochemical
Assay type: binding, E. coli
Conditions: for % Inhibition at [μM] [100]: compound at 100 μM; for inhibitory potency against FmlH, in words: ELISA-based competition assay; for PI100 (percent inhibition): galactoside at 100 μM
Method in brief: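 Sialidase-treated bovine submaxillary mucin (ds-BSM) coated wells, BSA-blocked, then biotinylated FmlH^LD (20 μg/mL) with or without compound for 1 h at room temperature. Bound lectin detected by streptavidin-HRP/TMB, A450.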

[1] = read-out: % Inhibition at [μM] [1], compound at 1 μM, inhibition of FmlHLD binding to ds-BSM
[2] = read-out: PI(1) (average percent inhibition), compound at 1 μM, Table 4
[3] = read-out: % Inhibition at [μM] [100], compound at 100 μM, inhibition of FmlHLD binding to ds-BSM
[4] = inhibition of FmlHLD binding to ds-BSM
[5] = IC50 (μM), Table 5, Gal and GalNAc inhibition of FmlH
[6] = read-out: % Inhibition at [μM] [10], compound at 10 μM, inhibition of FmlHLD binding to ds-BSM
[7] = read-out: % Inhibition at [μM] [0.1], compound at 0.1 μM (100 nM), inhibition of FmlHLD binding to ds-BSM
[8] = read-out: PI (0.1) (average percent inhibition), compound at 100 nM, Table 4
[9] = read-out: PI100 (percent inhibition), galactoside at 100 μM, mean with standard error of the mean
[10] = IC50, inhibition of FmlHLD binding to ds-BSM

T1 sequence (P77588 25-182): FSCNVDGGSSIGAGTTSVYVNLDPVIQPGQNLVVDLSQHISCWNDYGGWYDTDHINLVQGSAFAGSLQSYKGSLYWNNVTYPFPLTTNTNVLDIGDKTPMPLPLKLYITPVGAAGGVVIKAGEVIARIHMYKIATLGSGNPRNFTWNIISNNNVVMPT

Work on `CC(=O)N[C@@H]1[C@@H](O)[C@@H](O)[C@@H](CO)O[C@H]1N(CC(=O)NC(C)(C)C)C(=O)c1cccc2cccnc12` [AM1165, N-((2R,3R,4R,5R,6R)-3-acetamido-4,5-dihydroxy-6-(hydroxymethyl)tetrahydro-2H-pyran-2 yl)-N-(2-“(tert-butylamino)-2-oxoethyl)quinoline-8-carboxamide] yielded an inhibition at 1 µM [1] of 5.57% and an inhibition at 1 µM [2] of 5.57%.
`OC[C@H]1O[C@@H](Oc2cc3c(O)cc(O)cc3[o+]c2-c2ccc(O)cc2)[C@H](O)[C@@H](O)[C@H]1O` [PelG, reference compound] gave an inhibition at 100 µM [3] of 0.74%.
`O=[N+]([O-])c1ccccc1O[C@@H]1O[C@H](COP(=O)(O)O)[C@H](O)[C@H](O)[C@H]1O` [ONPG-6P, reference compound] was tested, and the “% Inhibition at [μM] [100]” value [4] was 1.31%.
With `O=C(O)c1cccc(-c2ccccc2O[C@H]2O[C@H](CO)[C@H](O)[C@H](O)[C@H]2O)c1` [Compound 200a] the inhibition at 100 µM [3] was 26.2%.
In the case of `CC(=O)N[C@@H]1[C@H](Oc2ccccc2-c2cccc(NC(=O)C(F)(F)F)c2)OC(CO)[C@H](O)[C@@H]1O` (stereo partly drawn) [Compound 3044, N-(2′-(((2S,3S,4R,5R)-3-acetamido-4,5-dihydroxy-6-(hydroxymethyl)tetrahydro-2H-pyran-2-yl)oxy)-[1,1′-biphenyl]-3-yl)-2,2,2-trifluoroacetamide], the IC50 [5] is reported as 0.37 µM.
Work on `OC[C@H]1O[C@@H](Oc2ccccc2Cl)[C@H](O)[C@@H](O)[C@H]1O` [Compound 154c] yielded an inhibition at 1 µM [1] of 7.95%, an inhibition at 10 µM [6] of 20.7% and an inhibition at 100 µM [3] of 90.5%.
With `Cc1cc(=O)oc2cc(O[C@@H]3O[C@H](CO)[C@H](O)[C@H](O)[C@H]3O)ccc12` [MUG, reference compound] the inhibition at 1 µM [1] was 8.73%, the inhibition at 10 µM [6] was 19.7% and the inhibition at 100 µM [3] was 85.2%.
For `CC(=O)N[C@H]1[C@H](Oc2ccccc2-c2cccc(CO)c2)O[C@H](CO)[C@H](O)[C@@H]1O` [AM2064, N-((2S,3R,4R,5R,6R)-4,5-dihydroxy-6-(hydroxymethyl)-2-((3′-(hydroxymethyl)-[1,1′-biphenyl]-2-yl)oxy)tetrahydro-2H-pyran-3-yl)acetamide], the “inhibitory potency against FmlH, in words” value (from here on “inhibitory potency”) was “equal or slightly reduced potency”, the IC50 [5] was 0.63 µM and the inhibition at 0.1 µM [7] was 2%. The inhibition at 1 µM [1] was 38.9%, the inhibition at 0.1 µM [8] was 2% and the inhibition at 1 µM [2] was 38.9%.
In the case of `COc1ccc(O)cc1-c1ccccc1O[C@@H]1O[C@H](CO)[C@H](O)[C@H](O)[C@H]1NC(C)=O` [AM2073, N-((2S,3R,4R,5R,6R)-4,5-dihydroxy-2-((5′-hydroxy-2′-methoxy-[1,1′-biphenyl]-2-yl)oxy)-6-(hydroxymethyl)tetrahydro-2H-pyran-3-yl)acetamide], the “inhibitory potency” value is reported as “equal or slightly reduced potency”, the IC50 [5] is reported as 0.51 µM and the inhibition at 0.1 µM [7] is reported as 7.1%. The inhibition at 1 µM [1] was 34.2%, the inhibition at 0.1 µM [8] was 7.1% and the inhibition at 1 µM [2] was 34.2%.
Work on `N#Cc1ccccc1O[C@H]1O[C@H](CO)[C@H](O)[C@H](O)[C@H]1O` [Compound 3α, 2-cyanophenyl α/β-D-galactopyranoside] yielded an inhibition at 100 µM [9] of 17.8 ± 6.3%.
With `CC(=O)N[C@H]1[C@H](Oc2ccccc2-c2cccc(NS(C)(=O)=O)c2)O[C@H](CO)[C@H](O)[C@@H]1O` [AM2038, N-((2S,3R,4R,5R,6R)-4,5-dihydroxy-6-(hydroxymethyl)-2-((3′-(methylsulfonamido)-[1,1′-biphenyl]-2-yl)oxy)tetrahydro-2H-pyran-3-yl)acetamide] the “potency relative to matched pair Gal/GalNAc derivative” value (2038 vs 2043, 2050 vs 3029) was “about 5 fold”, the IC50 [5] was 0.23 µM and the IC50 [10] was 0.271 µM. The “greater potency than 29β-NAc” value (IC50 ratio) was 3 fold, the inhibition at 0.1 µM [7] was 16.5% and the inhibition at 1 µM [1] was 81.4%. For the same molecule, the inhibition at 0.1 µM [8] was 16.5% and the inhibition at 1 µM [2] was 81.4%.
In the case of `CC(=O)N[C@H]1[C@H](Oc2ccc([N+](=O)[O-])cc2)O[C@H](CO)[C@@H](O)[C@@H]1O[C@@H]1O[C@H](CO)[C@H](O)[C@H](O)[C@H]1O` [Gal-b1-3-PNPGlcNAc, reference compound], the “% Inhibition at [μM] [100]” value [4] is reported as −3.60%.
`COc1ccc(C(=O)O)cc1-c1ccccc1O[C@@H]1O[C@H](CO)[C@H](O)[C@H](O)[C@H]1NC(C)=O` [AM2051] gave an inhibition at 0.1 µM [7] of 0% and an inhibition at 1 µM [1] of 15.9%.
With `N#Cc1ccccc1O[C@@H]1O[C@H](CO)[C@H](O)[C@H](O)[C@H]1O` [Compound 3β, 2-cyanophenyl α/β-D-galactopyranoside] the “PI100 (percent inhibition)” value (mean with standard error of the mean, 100 µM) was 94.5 ± 0.3%, the inhibition at 1 µM (read-out: PI1 (percent inhibition), galactoside at 1 μM, mean with standard error of the mean) was 12.1 ± 6.3% and the inhibition at 10 µM (read-out: PI10 (percent inhibition), galactoside at 10 μM, mean with standard error of the mean) was 30.4 ± 1.8%. It also gave an inhibition at 100 µM [9] of 95%.
Molecule `CC(=O)N[C@H]1[C@H](Oc2ccccc2-c2cccc(NS(=O)(=O)C(F)(F)F)c2)O[C@H](CO)[C@H](O)[C@@H]1O` [Compound 3049, N-((2S,3R,4R,5R,6R)-4,5-dihydroxy-6-(hydroxymethyl)-2-((3′-((trifluoromethyl)sulfonamido)-[1,1′-biphenyl]-2-yl)oxy)tetrahydro-2H-pyran-3-yl) acetamide] has an IC50 [5] of 1.17 µM.
For `CC(=O)N[C@H]1[C@H](Oc2cccc3cc4ccccc4nc23)O[C@H](CO)[C@H](O)[C@@H]1O` [AM2003, N-((2S,3R,4R,5R,6R)-2-(acridin-4-yloxy)-4,5-dihydroxy-6-(hydroxymethyl)tetrahydro-2H-pyran-3-yl)acetamide], the inhibition at 1 µM [1] was 15.4% and the inhibition at 1 µM [2] was 15.4%.
For `OC[C@H]1O[C@@H](Oc2cccc(-c3ccccc3)c2)[C@H](O)[C@@H](O)[C@H]1O` [Compound 114af2], the inhibition at 10 µM [6] was 7.8% and the inhibition at 100 µM [3] was 56.9%.
With `CC(=O)N[C@H]1[C@H](Oc2ccccc2-c2cccc(F)c2)O[C@H](CO)[C@H](O)[C@@H]1O` [AM2028, N-((2S,3R,4R,5R,6R)-2-((3′-fluoro-[1,1′-biphenyl]-2-yl)oxy)-4,5-dihydroxy-6-(hydroxymethyl)tetrahydro-2H-pyran-3-yl)acetamide] the “inhibitory potency” value was “equal or slightly reduced potency”, the IC50 [5] was 1.48 µM and the inhibition at 1 µM [1] was 11.8%. The inhibition at 1 µM [2] was 11.8%.
`CC(=O)N[C@H]1[C@H](Oc2cccc(C)c2-c2cccc(NS(C)(=O)=O)c2)O[C@H](CO)[C@H](O)[C@@H]1O` [AM2110] was tested, and the IC50 [10] was 0.122 µM.
`O=c1ccc2nc3ccc(O[C@@H]4O[C@H](CO)[C@H](O)[C@H](O)[C@H]4O)cc3oc-2c1` [Resorufin Gal, reference compound] showed an inhibition at 10 µM [6] of 24% and an inhibition at 100 µM [3] of 80.4%.
`O=[N+]([O-])c1ccc(O[C@@H]2O[C@H](CO[C@@H]3O[C@H](CO)[C@H](O)[C@H](O)[C@H]3O)[C@H](O)[C@H](O)[C@H]2O)cc1` [Compound 35, p-nitrophenyl Gal-β1-6-Gal, reference compound] was tested, and the “PI100 (percent inhibition)” value (mean with standard error of the mean) was 19.4 ± 1.6%.
`CC(=O)N[C@@H]1[C@H](Oc2cccc(C(=O)OCc3ccccc3)c2-c2cccc(NS(C)(=O)=O)c2)OC(CO)[C@H](O)[C@@H]1O` (stereo partly drawn) [Compound 3081, Benzyl 6-(((2S,3S,4R,5R)-3-acetamido-4,5-dihydroxy-6-(hydroxymethyl)tetrahydro-2H-pyran-2-yl)oxy)-3′-(methylsulfonamido)-[1,1′-biphenyl]-2-carboxylate] gave an IC50 (IC50 (μM), Table 6, sulfonamides 3078-3090) of 0.18 µM.
For `COc1cc(-c2[o+]c3cc(O)cc(O)c3cc2O[C@@H]2O[C@H](CO)[C@H](O)[C@H](O)[C@H]2O)ccc1O` [PeoG, reference compound], the inhibition at 100 µM [3] was 3.64%.
Work on `OC[C@H]1O[C@@H](Oc2ccc(-c3ccccc3)cc2)[C@H](O)[C@@H](O)[C@H]1O` [Compound 114bf2] yielded an inhibition at 100 µM [3] of 30%.
In the case of `N#Cc1ccccc1O[C@H]1O[C@H](CO)[C@H](O)[C@H](O)[C@H]1O` [Compound 137a], the inhibition at 100 µM [3] is reported as 17.8%.

Source: patent US11773127B2, “Compounds and methods for treating bacterial infections” (Washington University, priority 2017, dated 2023)
